Reference: patent US20090081197A1 (Palatin Technologies, Inc., priority 2007, published 2009)

Assays:
MC1-R = target: T1, MC1-R (Mus musculus, UniProt Q01727); assay: Competitive inhibition assay using [I^125]-NDP-α-MSH, B-16 mouse melanoma cell membranes; format: binding; details: for Ki: read-out: Ki (nM) (NDP-α-MSH) In Normal System, MC1-R; for inhibition at 1 µM: 1 μM test compound, read-out: Inhibition at 1 μM (NDP-α-MSH) In Normal System, MC1-R
T1 construct: B-16 mouse melanoma cells (containing MC1-R); endogenous in cells
Protocol: (§1) The ligand concentration used was 0.4 nM for MC3-R and MC5-R, 0.2 nM for MC4-R and 0.1 nM for B16-F10 (MC1-R) membranes. In certain experiments, hMC1-R was also employed.
(§2) The assay mixture was incubated for 90 minutes at room temperature, then filtered and the membranes washed three times with ice cold buffer. The filter was dried and counted in a gamma counter for remaining radioactivity bound to the membranes. […] Each assay was conducted in triplicate and the actual mean values are described, with results less than 0% reported as 0%.

[1] = Penile erection induction in male rats; format: in vivo; details: IV
Protocol: Penile erection induction. The ability of compounds to induce penile erection (PE) in male rats was evaluated with selected compounds. Male Sprague-Dawley rats weighing 200-250 g were kept on a 12 hour on/off light cycle with food and water ad libitum. All behavioral studies were performed between 10 A.M. and 5 P.M. Groups of 4-8 rats were treated with compounds at a variety of doses via intravenous (IV) or intracerebroventricular (ICV) routes. Immediately after treatment, rats were placed into individual polystyrene cages (27 cm long, 16 cm wide, and 25 cm high) for behavioral observation. […] Controls utilized carrier without the test compound. Mean PEs in control groups were 0.17 to 0.5 PEs/rat by IV administration in various experiments and between 1-2 PEs/rat by ICV administration in various experiments, and thus only PEs with statistically relevant increases over the mean PEs in control groups are reported as inducing PEs. A PE response in IV animals greater than the mean PEs in control groups but less than 1.0 PEs/rat, particularly with less than all animals responding, was treated as equivocal, and not necessarily distinguishable from vehicle control. In selected instances, compounds with equivocal results in the IV model were tested for penile response in an ICV model, and compounds without a statistically relevant increase over the mean PEs in ICV control groups were determined to not induce PEs.

[2] = IP (and IN) food intake, mice; format: in vivo; details: mouse, IP; for inhibition in vivo at 3 mg/kg / maximal decrease in food intake / inhibition in vivo at 10 mg/kg: 4 hours; for inhibition in vivo at 3 mg/kg / inhibition in vivo at 10 mg/kg: read-out: maximal decrease in food intake; for decrease in food intake: 20 hours
Protocol: IV and IP food intake and body weight change. Change in food intake and body weight was evaluated for selected compounds. Male Sprague-Dawley rats or male C57BL/6 mice were utilized. Animals were individually housed in conventional plexiglass hanging cages and maintained on a controlled 12 hour on/off light cycle. Water and powdered (LabDiet, 5P00 Prolab RMH 3000) or pelleted (Harlan Teklad 2018 18% Protein Rodent Diet) food was provided ad libitum. For 1 week before treatment, 24-hour food intake and body weight change was recorded to assess a baseline for the group during vehicle treatment. The rats were dosed IV with vehicle or selected compounds (0.5-3 mg/kg, and in some cases up to 10 mg/Kg) or dosed intraperitoneally (IP) with vehicle or selected compounds (0.5-10 mg/kg, and in some cases up to 50 mg/kg). Mice were dosed IP. […] The changes in body weight and food intake for the 48 hour and 72 hour periods after dosing were also measured to determined reversal of changes in body weight and food intake effects back to baseline levels.

MC3-R = MC3-R (Homo sapiens, UniProt P41968); assay: Competitive inhibition assay using [I^125]-NDP-α-MSH, hMC3-R membranes; format: binding; parameters: expressed in transfected cells; details: for Ki: read-out: Ki (nM) (NDP-α-MSH) In Normal System, MC3-R; for inhibition at 1 µM: 1 μM test compound, read-out: Inhibition at 1 μM (NDP-α-MSH) In Normal System, MC3-R
Protocol: as §1, §2

MC5-R = MC5-R (Homo sapiens, UniProt P33032); assay: Competitive inhibition assay using [I^125]-NDP-α-MSH, hMC5-R membranes; format: binding; parameters: expressed in transfected cells; details: for Ki: read-out: Ki (nM) (NDP-α-MSH) In Normal System, MC5-R; for inhibition at 1 µM: 1 μM test compound, read-out: Inhibition at 1 μM (NDP-α-MSH) In Normal System, MC5-R
Protocol: as §1, §2

MC4-R [3] = target: T2, MC4-R (Homo sapiens, UniProt P32245); assay: cAMP functional activity assay in HEK-293 cells, normal system; format: cell-based; parameters: expressed in transfected cells; host or cells: HEK-293; details: for EC50 / intrinsic activity at MC4-R in a normal system: normal receptor density system; for intrinsic activity at MC4-R in a normal system: NDP-α-MSH = 1.0; for functional status at MC4-R in cAMP assay: normal system, 1 μM concentration where stated
Protocol: General method for EC50 determination in functional activity assay. […] Data analysis and EC50 values were determined using nonlinear regression analysis with Prism Graph-Pad software.
Functional status. The agonist/antagonist status with respect to MC1-R, MC-3R, MC4-R and MC5-R of certain compounds of the invention was determined. Antagonistic activity was determined by measuring the inhibition of α-MSH-induced or NDP-α-MSH-induced cAMP levels following exposure to graded doses of compounds as in the preceding descriptions.
Assay for agonist. Evaluation of the molecules to elicit a functional response in HEK-293 cells expressing MC4-R was accomplished by measuring the accumulation of intracellular cAMP following treatment. Confluent HEK-293 cells expressing MC4-R receptors were detached by enzyme free cell suspension buffer. […] The cells were plated in a 96 well plates at a density of 0.5×10^5 cells per well and pre-incubated for 30 minutes. Test compounds (dissolved in dimethylsulfoxide (DMSO) at a concentration range of 0.05-5000 nM) were added in a total assay volume of 200 μL and cells were incubated for 1 hour at 37° C. The concentration of DMSO was always held at 1% in the assay mixture. NDP-α-MSH was used as the reference agonist. […] Data analysis and EC50 values were determined by using nonlinear regression analysis with Prism Graph-Pad software. […] Compounds with a response ratio of less than 0.1 (10%) were evaluated for antagonistic activity.

MC4-R [4] = target: T2, MC4-R; assay: Competitive inhibition assay using [I^125]-NDP-α-MSH, hMC4-R membranes; format: binding; parameters: host or cells: TREx-293 (HEK-293 stably expressing Tet repressor); details: for Ki: read-out: Ki (nM) (NDP-α-MSH) In Normal System, MC4-R; for inhibition at 1 µM: 1 μM test compound, read-out: Inhibition at 1 μM (NDP-α-MSH) In Normal System, MC4-R
Protocol: as §1, §2

MC4-R [5] = target: T2, MC4-R; assay: cAMP agonist stimulation, low receptor density system (0.1 ng/mL doxycycline); details: for Efficacy/Intrinsic Activity: 0.1 ng/mL doxycycline, low receptor density hMC4-R system, NDP-α-MSH maximal cAMP = 1.0
MC4-R [6] = target: T2, MC4-R; assay: cAMP agonist stimulation, high receptor density system (10 ng/mL doxycycline); details: for Efficacy/Intrinsic Activity: 10 ng/mL doxycycline, high receptor density hMC4-R system, NDP-α-MSH maximal cAMP = 1.0

T2 sequence (P32245 whole entry): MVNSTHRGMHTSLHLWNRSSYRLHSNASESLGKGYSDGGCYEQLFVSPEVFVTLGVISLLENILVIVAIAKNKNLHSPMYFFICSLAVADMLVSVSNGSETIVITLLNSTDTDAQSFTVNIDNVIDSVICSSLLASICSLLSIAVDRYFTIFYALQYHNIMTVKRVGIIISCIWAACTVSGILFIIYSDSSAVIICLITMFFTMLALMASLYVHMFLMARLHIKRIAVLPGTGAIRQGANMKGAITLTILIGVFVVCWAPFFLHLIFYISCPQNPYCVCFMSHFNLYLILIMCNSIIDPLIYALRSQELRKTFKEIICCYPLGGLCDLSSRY
T1 sequence (Q01727 whole entry): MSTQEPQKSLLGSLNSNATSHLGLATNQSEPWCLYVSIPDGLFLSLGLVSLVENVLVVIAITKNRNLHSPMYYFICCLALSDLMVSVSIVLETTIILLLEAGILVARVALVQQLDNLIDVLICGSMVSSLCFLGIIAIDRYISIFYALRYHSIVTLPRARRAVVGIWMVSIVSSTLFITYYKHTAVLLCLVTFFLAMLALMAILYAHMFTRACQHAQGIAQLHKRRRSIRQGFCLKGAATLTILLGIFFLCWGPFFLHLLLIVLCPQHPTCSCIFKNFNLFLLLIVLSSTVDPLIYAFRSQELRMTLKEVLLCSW
Sequence of MC3-R (P41968 whole entry): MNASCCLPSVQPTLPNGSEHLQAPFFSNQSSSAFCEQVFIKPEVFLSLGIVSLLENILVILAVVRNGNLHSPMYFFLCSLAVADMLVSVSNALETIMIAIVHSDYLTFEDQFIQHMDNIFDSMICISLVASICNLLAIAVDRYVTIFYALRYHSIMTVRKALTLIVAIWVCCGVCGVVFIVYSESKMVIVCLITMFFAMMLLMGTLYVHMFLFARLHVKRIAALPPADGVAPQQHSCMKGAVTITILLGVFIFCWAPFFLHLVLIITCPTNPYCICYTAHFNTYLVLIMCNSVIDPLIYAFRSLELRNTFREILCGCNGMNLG
Sequence of MC5-R (P33032 whole entry): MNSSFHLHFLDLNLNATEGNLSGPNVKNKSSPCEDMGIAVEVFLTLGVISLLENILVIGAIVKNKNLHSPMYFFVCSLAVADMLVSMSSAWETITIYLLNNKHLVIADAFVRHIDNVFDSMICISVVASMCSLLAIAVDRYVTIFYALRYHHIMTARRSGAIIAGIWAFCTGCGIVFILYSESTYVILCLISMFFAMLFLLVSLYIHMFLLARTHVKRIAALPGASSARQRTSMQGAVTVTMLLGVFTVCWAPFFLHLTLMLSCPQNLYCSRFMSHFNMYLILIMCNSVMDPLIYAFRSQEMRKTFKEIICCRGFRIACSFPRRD

SMILES	Ki (MC1-R) [nM]	Penile Erection IV ([1]; rat)	penile erection response ([1]; rat, 0.0003 to 0.03 mg/kg)	inhibition in vivo at 3 mg/kg ([2]; 3 mg/kg) [%]	Ki (MC3-R) [nM]	Ki (MC5-R) [nM]	EC50 (MC4-R [3]) [nM]	intrinsic activity at MC4-R in a normal system (MC4-R [3])	functional status at MC4-R in cAMP assay (MC4-R [3])	Ki (MC4-R [4]) [nM]	Efficacy/Intrinsic Activity (MC4-R [5])	EC50 (MC4-R [6]) [nM]	Efficacy/Intrinsic Activity (MC4-R [6])	inhibition at 1 µM (MC1-R) [%]	inhibition at 1 µM (MC3-R) [%]	inhibition at 1 µM (MC5-R) [%]	inhibition at 1 µM (MC4-R [4]) [%]	maximal decrease in food intake ([2]; 10 mg/kg) [%]	inhibition in vivo at 10 mg/kg ([2]; 10 mg/kg) [%]	further results
CC(=O)N[C@H](Cc1ccc(C)cc1C)C(=O)N1C[C@@H](C)N(C(=O)Cc2ccc3ccccc3c2)C[C@@H]1CCCNC(=N)N [Example 30, N-{(R)-1-(2,4 dimethyl-benzyl)-2-[(2S,5R)-2-(3-guanidino-propyl)-5-methyl-4-(2-naphthalen-2-yl-acetyl)-piperazin-1-yl]-2-oxo-ethyl}-acetamide]	1880	No	no penile activity response	8	232	250	9	0.4	partial agonist (intrinsic activity between 0.1 (10%) and 0.7 (70%) is classified as a partial agonist)	11	None	51	0.18	–	–	–	–	–	–	–
Cc1ccc(C[C@@H](N)C(=O)N2C[C@@H](C)N(C(=O)Cc3ccc4ccccc4c3)C[C@@H]2CCCNC(=N)N)c(C)c1 [Example 29]	431	Yes*	–	–	526	1540	46	0.8	agonist (intrinsic activity of 0.7 (70%) or higher is classified as an agonist)	6	0.25	34	0.77	0	25	7	85	–	–	maximum mean PEs per rat ([1]; 0.0003 to 0.03 mg/kg): 0.5; animals responding ([1]; rat, 0.0003 to 0.03 mg/kg): no more than 50%; decrease in food intake ([2]; 3 mg/kg): 3%; decrease in food intake ([2]; 10 mg/kg): 26%; EC50 (MC4-R [5]): 45 nM
CC(=O)N[C@H](Cc1ccc2ccccc2c1)C(=O)N1C[C@@H](CC(C)C)N(CCc2ccc3ccccc3c2)C[C@@H]1CCCNC(=N)N [Example 12, N-{2-[2(S)-(3-Guanidino-propyl)-5(R)-isobutyl-4-(2-naphthalen-2-yl-ethyl)-piperazin-1-yl]-1(R)-naphthalen-2-ylmethyl-2-oxo-ethyl}-acetamide]	4620	–	–	–	–	–	–	–	–	–	None	–	None	0	40	64	100	46	–	–
CC(=O)N[C@H](Cc1ccc(Cl)cc1C)C(=O)N1C[C@@H](C)N(C(=O)Cc2ccc3ccccc3c2)C[C@@H]1CCCNC(=N)N [Example 31, N-{(R)-1-(2-methyl, 4-chloro-benzyl)-2-[(2S,5R)-2-(3-guanidino-propyl)-5-methyl-4-(2-naphthalen-2-yl-acetyl)-piperazin-1-yl]-2-oxo-ethyl}-acetamide]	1390	No	no penile activity response	–	136	234	3	0.6	partial agonist (intrinsic activity between 0.1 (10%) and 0.7 (70%) is classified as a partial agonist)	5	None	39	0.27	–	–	–	–	–	7	–
Cc1cc(Cl)ccc1C[C@@H](N)C(=O)N1C[C@@H](C)N(CCc2ccc3ccccc3c2)C[C@@H]1CCCNC(=N)N [Example 26, N-{3-[1-[2(R)-Amino-3-(2-methyl, 4-chloro-phenyl)-propionyl]-5(R)-methyl-4-(2-naphthalen-2-yl-ethyl)-piperazin-2(S)-yl]-propyl}-guanidine]	–	No	–	44	–	–	–	0.3	partial agonist (intrinsic activity between 0.1 (10%) and 0.7 (70%) is classified as a partial agonist)	–	None	31	0.78	6	74	77	100	–	86	penile erection response ([1]; rat, 1 and 3 mg/kg): no penile erection
CC(=O)N[C@H](Cc1ccc(C)cc1C)C(=O)N1C[C@@H](C)N(CCc2ccc3ccccc3c2)C[C@@H]1CCCNC(=N)N [Example 25, N-{1(R)-(2,4-Dimethyl-benzyl)-2-[2(S)-(3-guanidino-propyl)-5(R)-methyl-4-(2-naphthalen-2-yl-ethyl)-piperazin-1-yl]-2-oxo-ethyl}-acetamide]	568	–	–	–	–	–	–	–	–	–	None	–	None	28	75	89	100	34	–	–
